From patent US20040106682A1, “Novel benzylideneamino guanidines and their uses as ligands to the melnocortin receptors” (priority 2001, published 2004)
Where a name gives a salt, the structure may show the parent alone. Blank lines part the entries; values can stand above or below the compound they belong to.

Tests used:
[1] = target: T1, MC1 receptor (Mus musculus, UniProt Q01727); assay: Affinity for the MC1-receptor, 125I-NDP-αMSH binding assay; details: B16 mouse melanoma cells endogenously expressing mouse MC1, displacement of 125I-NDP-MSH, nb = non-binding, i.e. no affinity; for Ki: read-out: Affinity for MC-receptors, Ki, MC1
T1 construct: B16 mouse melanoma cells were used, which endogenously express the (mouse) MC1 receptor; endogenous in cells; host or cells: B16 mouse melanoma cells
T1 sequence (Q01727 whole entry): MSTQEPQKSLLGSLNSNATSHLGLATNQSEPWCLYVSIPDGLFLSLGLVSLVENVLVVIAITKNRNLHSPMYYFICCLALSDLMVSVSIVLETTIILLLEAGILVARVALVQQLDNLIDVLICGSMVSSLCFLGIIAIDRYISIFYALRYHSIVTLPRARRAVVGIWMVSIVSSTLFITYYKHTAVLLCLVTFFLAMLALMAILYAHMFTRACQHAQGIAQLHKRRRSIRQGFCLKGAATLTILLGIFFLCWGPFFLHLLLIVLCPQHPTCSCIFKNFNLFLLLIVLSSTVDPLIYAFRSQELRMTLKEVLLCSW
Method: Test 1. Affinity for the MC1-receptor
The binding assay was carried out essentially as described by Lunec et al., Melanoma Res. 1992; 2; 5-12 using I^125-NDP-αMSH as ligand.
(§1) Essentially, the affinity of the compounds for the different melanocortin receptors were determined by using either insect cells (Sf9) or COS cells, which were transfected with recombinant human MC3, MC4 or MC5 receptors. For the determination of the affinity for the MC1 receptor, B16 mouse melanoma cells were used, which endogenously express the (mouse) MC1 receptor.
(§2) The compounds were tested at different concentrations for their ability to displace a ^125I-labelled NDP-MSH from the respective receptor. Incubation was performed in 96-well plates, using 50,000 cells/well (Sf9 or COS cells) up to 200,000 cells/well (mouse melanoma cells).
(§3) The test compound or standard (NDP-MSH) was added in an appropriate concentration (generally between 10^−4 M and 10^−12 M) together with labelled tracer (approx. 50,000 cpm/well) and incubated for 2 hours (at room temperature for Sf9 cells and at +37° C. for COS cells and mouse melanoma cells).
(§4) After the incubation, the cells were washed twice to get rid of the excess tracer and compound, and the cells were lysed with 0.1 M NaOH. The lysate was counted in a gamma-counter, binding was calculated and the affinity determined.

[2] = target: T2, recombinant human MC3 receptor (Homo sapiens, UniProt P41968); assay: Affinity for the MC3-receptors, 125I-NDP-αMSH binding assay; details: Sf9 or COS cells transfected with recombinant human MC3, displacement of 125I-NDP-MSH, nb = non-binding, i.e. no affinity; for Ki: read-out: Affinity for MC-receptors, Ki, MC3
T2 construct: expressed in transfected cells; host or cells: Sf9 insect cells or COS cells
T2 sequence (P41968 whole entry): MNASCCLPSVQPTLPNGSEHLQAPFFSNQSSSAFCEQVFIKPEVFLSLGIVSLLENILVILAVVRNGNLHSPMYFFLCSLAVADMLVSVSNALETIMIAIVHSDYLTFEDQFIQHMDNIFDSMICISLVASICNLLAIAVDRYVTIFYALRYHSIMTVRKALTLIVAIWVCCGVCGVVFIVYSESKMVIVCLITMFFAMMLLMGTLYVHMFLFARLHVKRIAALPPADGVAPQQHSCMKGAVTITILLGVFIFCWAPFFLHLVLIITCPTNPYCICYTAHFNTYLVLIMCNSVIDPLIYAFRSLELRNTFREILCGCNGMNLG
Method: (§5) Test 2. Affinity for the MC3-receptors, the MC4receptors and the MC5-receptors
(§6) The binding assays were carried out essentially as described by Szardenings et al., J. Biol. Chem. 1997; 272; 27943-27948 and Schiöth et al., FEBS Lett. 1997; 410; 223-228 using I^125-NDP-αMSH as ligand.
as §1, §2, §3, §4

[3] = target: T3, recombinant human MC4 receptor (Homo sapiens, UniProt P32245); assay: Affinity for the MC4-receptors, 125I-NDP-αMSH binding assay; details: Sf9 or COS cells transfected with recombinant human MC4, displacement of 125I-NDP-MSH, nb = non-binding, i.e. no affinity; for Ki: read-out: Affinity for MC-receptors, Ki, MC4
T3 construct: expressed in transfected cells; host or cells: Sf9 insect cells or COS cells
T3 sequence (P32245 whole entry): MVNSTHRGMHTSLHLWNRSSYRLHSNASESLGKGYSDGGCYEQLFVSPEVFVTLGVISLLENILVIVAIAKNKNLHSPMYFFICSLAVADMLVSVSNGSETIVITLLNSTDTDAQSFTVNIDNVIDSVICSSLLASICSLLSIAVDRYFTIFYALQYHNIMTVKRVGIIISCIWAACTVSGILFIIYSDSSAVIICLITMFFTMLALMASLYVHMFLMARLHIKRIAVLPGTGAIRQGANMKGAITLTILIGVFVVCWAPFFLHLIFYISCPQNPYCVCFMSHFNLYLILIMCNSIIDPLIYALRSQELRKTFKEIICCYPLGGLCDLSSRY
Method: as §5, §6, §1, §2, §3, §4

[4] = target: T4, recombinant human MC5 receptor (Homo sapiens, UniProt P33032); assay: Affinity for the MC5-receptors, 125I-NDP-αMSH binding assay; details: Sf9 or COS cells transfected with recombinant human MC5, displacement of 125I-NDP-MSH, nb = non-binding, i.e. no affinity; for Ki: read-out: Affinity for MC-receptors, Ki, MC5
T4 construct: expressed in transfected cells; host or cells: Sf9 insect cells or COS cells
T4 sequence (P33032 whole entry): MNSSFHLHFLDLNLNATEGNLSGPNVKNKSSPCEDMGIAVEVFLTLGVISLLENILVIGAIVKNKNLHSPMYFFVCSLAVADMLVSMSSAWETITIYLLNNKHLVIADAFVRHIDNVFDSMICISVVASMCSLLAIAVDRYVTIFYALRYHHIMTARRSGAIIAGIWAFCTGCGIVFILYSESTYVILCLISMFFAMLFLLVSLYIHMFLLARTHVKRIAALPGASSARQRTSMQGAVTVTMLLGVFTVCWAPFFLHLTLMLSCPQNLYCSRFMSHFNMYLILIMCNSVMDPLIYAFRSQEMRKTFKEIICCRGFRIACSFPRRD
Method: as §5, §6, §1, §2, §3, §4

[5] = test system: melanocortin receptors; assay: Affinity/activity on melanocortin receptors (general statements); format: binding; details: statement in words, receptor subtype not specified

SMILES: N=C(N)NN=Cc1ccc([N+](=O)[O-])c(Cl)c1Cl (as salt: HCl) [1:4, N-(2,3-Dichloro-4-Nitrobenzylideneamino)guanidine]
melting point: 258 to 262 °C

SMILES: CCOc1cc(C=NNC(=N)N)c([N+](=O)[O-])c(C(F)(F)F)c1 (as salt: HCl) [1:5, N-(5-Ethoxy-2-Nitro-3-Trifluoromethylbenzylideneamino)guanidine]
melting point: 92 to 98 °C

SMILES: N=C(N)NN=Cc1c(Br)cccc1Br (as salt: HCl) [1:6, N-(2,6-Dibromobenzylideneamino)guanidine]
melting point: 178 to 183 °C

SMILES: COc1cccc(OC)c1C=NNC(=N)N (as salt: salt) [1:11, N-(2,6-Dimethoxybenzylideneamino)guanidine]
melting point: 158 to 160 °C

SMILES: N=C(N)NN=Cc1ccc([N+](=O)[O-])c(Cl)c1Cl [1:4, N-(2,3-Dichloro-4-Nitrobenzylideneamino)guanidine]
Ki [1]: 3.6 µM
Ki [2]: 10.1 µM
Ki [3]: 12.2 µM
Ki [4]: 10.7 µM

SMILES: N=C(N)N/N=C/c1c(Cl)cccc1Cl [Guanobenz, Guanabenz, reference compound]
Affinity for MC-receptors, Ki, MC1 [1]: nb
Affinity for MC-receptors, Ki, MC3 [2]: nb
Affinity for MC-receptors, Ki, MC4 [3]: nb
Affinity for MC-receptors, Ki, MC5 [4]: nb
affinity to the melanocortin receptors [5]: no affinity

The remaining lines, values ahead:

melting point: 236 to 239 °C
SMILES: N=C(N)NN=Cc1ccc(I)cc1Br (as salt: HCl) [1:9, N-(2-Bromo-4-Iodobenzylideneamino)guanidine]

melting point: 231 to 232.5 °C
SMILES: N=C(N)NN=Cc1cccc(Cl)c1I (as salt: salt) [1:1, N-(3-Chloro-2-Iodobenzylideneamino)guanidine]

melting point: 211 to 212 °C
SMILES: N=C(N)NN=Cc1cc(F)ccc1F (as salt: salt) [1:10, N-(2,5-Difluorobenzylideneamino)guanidine]

melting point: 223 to 224.5 °C
SMILES: N=C(N)NN=Cc1cccc(O)c1O (as salt: salt) [1:12, N-(2,3-Dihydroxybenzylideneamino)guanidine]

melting point: 202 to 207 °C
SMILES: N=C(N)NN=Cc1ccc(Br)cc1I (as salt: salt) [1:13, N-(4-Bromo-2-iodobenzylideneamino)guanidine]

Ki [1]: 0.5 µM
Ki [2]: 5.8 µM
Ki [3]: 0.01 µM
Ki [4]: 4.9 µM
SMILES: N=C(N)NN=Cc1cccc(Cl)c1I [1:1, N-(3-Chloro-2-Iodobenzylideneamino)guanidine]

Ki [1]: 0.8 µM
Ki [2]: 22.7 µM
Ki [3]: 0.1 µM
Ki [4]: 29.6 µM
SMILES: N=C(N)NN=Cc1c(Br)cccc1Br [1:6, N-(2,6-Dibromobenzylideneamino)guanidine]
